Experiment [1] relates to HMGB‐1. In words: Immunofluorescence staining of HMGB-1 (release) in CT26 cells. The note with it: CT26, compounds at IC50, illumination at 740 and 770 nm. The format is cell-based, mouse. Here is the method:
(§1) Scientific, Catalog no.15 5411) at a d ensity of 8,00 0 cells p er well and cultu red fo r 24 h at 37 °C with 5 % CO2. T he cells wer e then treated with a solution of the compounds at a concentration corresponding to the IC50 for 4 h. After refreshing the medium, cells were subjected to irradiation and incubated for an additional 12 h. Subsequently, the cells were fix ed with 4% paraformaldehyde and immunostained with Anti- Calreticulin antibody (Abcam, Catalog no. ab2907) diluted 1/1000 at 4 °C overnight. Cells were then washed three times with PBS, treated with Goat Anti- Rabbit IgG H&L (Alexa […]
(§2) temperature in the dark, washed in PBS and treat ed with 10 µg/mL Hoechst for 15 min.
(§3) After a final wash, cells were analyzed by confocal microscopy as det ailed above.
(§4) Immunofluorescence st aining of HMGB-1
CT26 or MCA205 cells were seeded in Lab -Te k ® Chambered Coverglass System (Thermo Fisher Scientific, Catalog no.155411) at a density of 8,000 cells per well and cultured for 24 h at 37 °C with 5% CO2. The cells were then treated with a solution of the compounds at a concentration corresponding to the IC50 for 4 h. After refreshing the medium, cells were subjected to irradiation and incubated for an additional 12 h.
Subsequently, the cells were fixed with 4% paraformaldehyde, perm eabilized with 0.2% Triton X-100 and immunostained using anti-HMGB1 antibody [EPR3507] […]

In experiment [2] the test system is HMGB‐1. In words: Immunofluorescence staining of HMGB-1 (release) in MCA205 cells. The format is cell-based, mouse. The note with it: MCA205, PS at IC50, illumination at 740 nm. Here is the method:
We then used the corresponding IC50 values of each PS to evaluate their in vitro ICD induction on MCA205 cells. […] As a result, we chose Ce6 as the positive control for our subsequent in vivo tests on MCA205 cells.
as §1, §2, §3, §4
CT26 or MCA205 cells were seeded in Lab -Te k ® Chambered Coverglass System (Thermo Fisher Scientific, Catalog no.155411) at a density of 8,000 cells per well and cultured for 24 h at 37 °C with 5% CO2. The cells were then treated with a solution of the compounds at a concentration corresponding to the IC50 for 4 h. […]

Experiment [3] concerns IFN‐γ and IL‐17A. As to the kind of experiment: Cytokine assay (ELISA) in serum after vaccination. It counts as in vivo, BALB/c mice. Particulars: day 7, compared to Control and Cisplatin groups. The text has this:
Encouraged by the excellent performance of Os2 in inducing ICD both in vitro and in vivo, we decided to further evaluate the antitumor immune response following vaccination. A key feature of ICD is its ability to initiate antigen‐specific adaptive immune responses. To assess this, we measured the immune cell response in the spleens and the cytokine levels in the serum of mice 7 days after vaccination (Figures 6A and S28).
PerCp Cy5.5 (Biolegend, Catalog no.100217, cl one 17A2), anti -CD4- Kiravia 520 (Biolegend, Catalog no. 100477, clone GK1.5), anti-CD8a-BUV496 (Ther mo F i s h er […]
transcription factor staini ng, the cells were treat ed with True- Nuclear™ Transcription Factor Buffer Set (Biolegend, Catalog no. 424401) after surface staining an d re-stained with fluorescen ce-labeled anti-IFNγ-PE (Biolegend, Catalog no. 505807, clone XMG1.2), anti-FoxP3- BV421 (Biolegend, Catalog no.126419, clone MF-14) and Zombie NIR™Fixable Viability Kit( Biolegend,Catalog no.423105).
Serum samples were obt ained from the mice on day 7 after treatment. Cytokine was detected using ELISA kits according to the manufacturer ’s instructions: IFN-γ (Biolegend, Catalog no. 430807) and IL -17A ( Bi olegend, Catalog no.432507).
All the analysis data are given as mean ± SEM. […]

Molecules are shown by their SMILES.

For `C=Cc1c(C)c2cc3nc(c(CC(=O)O)c4[nH]c(cc5nc(cc1[nH]2)C(C)=C5CC)c(C)c4C(=O)O)[C@@H](CCC(=O)O)[C@@H]3C` [Ce6, chlorin e6], the “HMGB‐1 release” value in experiment [1] is reported as “a minority”. The “HMGB‐1 release” value in experiment [2] is given as “significantly promoted”. Also, in experiment [3], the “IFN‐γ level in serum” value is “significant increase” and the “IL‐17A level in serum” value was “significant increase”.
